Measurements: US20040109832A1, “Di-substituted resorcinols as skin lightening agents” (Unilever Home & Personal Care USA, Division Of Conopco, Inc., priority 2002, published 2004)

Tested on: T1, mushroom tyrosinase
T1 construct: mushroom tyrosinase (Sigma T-7755)
Experiment: Mushroom Tyrosinase Assay
Assay type: biochemical
Conditions: for Percent of Control: slope ΔAbs 475 nm/min vs ethanol control; for IC50: L-DOPA substrate, absorbency at 475 nm, pH 7.0, read-out: IC50 (skin lightener concentration that results in 50% tyrosinase inhibition relative to the control); for skin lightening effectiveness (tyrosinase inhibition), in words: conclusion from Tables 8 and 9
Protocol: Mushroom tyrosinase inhibition is indicative of reduction in melanin synthesis, thereby showing skin lightening effect. […] Following an initial measurement of background absorbency at 475-nm, 20 microliters of mushroom tyrosinase (Sigma T-7755; 6050 units/ml) was added and incubated at room temperature. Absorbency is read at 475-nm over the following time points: 0, 2, 4, and 6.5 minutes. The data is plotted as 475-nm absorbency vs. time (minutes) and the slope of the line is calculated (ΔAbs 475 nm/ min).

[1] = Table 9, Concentration 1 micro M
[2] = Table 9, Concentration 10 micro M
[3] = Table 9, Concentration 50 micro M
[4] = Table 9, Concentration 100 micro M

SMILES	Percent of Control (Concentration 0.0156 micro M)	Percent of Control (Concentration 0.0312 micro M)	Percent of Control (Concentration 0.0625 micro M)	Percent of Control (Concentration 0.125 micro M)	Percent of Control (Concentration 0.25 micro M)	Percent of Control (Concentration 0.5 micro M)	Percent of Control (Concentration 1 micro M)	Percent of Control (Concentration 10 micro M)	Percent of Control (Concentration 50 micro M)	Percent of Control (Concentration 100 micro M)	IC50 [nM]	% of Control (Melanin Synthesis) [1]	% of Control (Melanin Synthesis) [2]	% of Control (Melanin Synthesis) [3]	% of Control (Melanin Synthesis) [4]	skin lightening effectiveness (tyrosinase inhibition), in words	skin lightening effectiveness (tyrosinase inhibition), in words (listed as 4,6-di-Isopropyl resorcinols)
CC(C)c1ccc(O)cc1O [4-Isopropyl Resorcinol, 4-isopropyl resorcinol]	80.6% of Control	60.9% of Control	46.6% of Control	35.8% of Control	30.4% of Control	28.7% of Control	26.9% of Control	28.7% of Control	28.7% of Control	30.4% of Control	~50	27 % of Control	29 % of Control	29 % of Control	30 % of Control	effective skin lightening compounds	–
Oc1cccc(O)c1 [Resorcinol, resorcinol]	–	–	–	–	–	–	–	–	–	–	–	98 % of Control	98 % of Control	100 % of Control	100 % of Control	no activity	–
Cc1cc(O)cc(O)c1C [4,5-di-Methyl Resorcinol, 4,5-dimethyl resorcinol]	–	–	–	–	–	–	–	–	–	–	–	95 % of Control	51 % of Control	35 % of Control	15 % of Control	not as effective	–
CC(C)c1cc(C(C)C)c(O)cc1O [4,6-Diisopropyl Resorcinol, 4,6-di-isopropyl resorcinol]	96.7% of Control	94.9% of Control	93.1% of Control	86.0% of Control	75.2% of Control	60.9% of Control	48.4% of Control	28.7% of Control	34.0% of Control	39.4% of Control	750	48 % of Control	29 % of Control	34 % of Control	39 % of Control	comparable to 4-Ethyl Resorcinol	effective skin lightening compounds
CCc1ccc(O)cc1O [4-Ethyl Resorcinol, 4-ethyl resorcinol]	86% of Control	82% of Control	72% of Control	64% of Control	57% of Control	43% of Control	32% of Control	25% of Control	21% of Control	18% of Control	350	32 % of Control	25 % of Control	21 % of Control	18 % of Control	–	–
